Results: patent US8455443B2, “Methods of use of skin wound healing compositions” (University of Southern California, priority 2009, dated 2013)

Experiments:
HKC migration = experiment: in vitro pro-motility (cell migration) activity of hsp90α and its fragments, FIG. 1; type: cell-based, human; conditions: for activity on cell migration: relative to full length hsp90α
Method: FIG. 1 contains a list of amino acid sequences that were tested for in vitro efficacy as compared to a control medium. The amino acid sequences are identified in FIG. 1 as follows:
Therefore, hsp90α promotes HKC migration mainly through its middle and the carboxyl domains, consistent with their surface location in hsp90α.
However, as can also be seen in FIG. 1, not all of the full hsp90α protein or the entire middle domain and charged portion of hsp90α protein is necessary to promote wound healing. […] Thus, the unnecessary portions of hsp90α need not be included in a composition for wound healing, thereby allowing a composition to be more efficacious per weight of active wound healing agent. Moreover, instead of relying on complicated isolation and extraction methods to obtain the hsp90α protein or the middle domain plus charged portion of hsp90α protein, more inexpensive and conventional methods of synthesis may be employed to obtain the lower chain length polypeptide chains.

[1] = system: 1 cm×1 cm full-thickness excision wound on the back of nude mice; experiment: full-thickness excision skin wound healing in nude mice, topical treatment; type: in vivo; conditions: for wound sizes: n=10 per group
Method: 100 μg F-3 fragments in 100 μl of 10% Carboxymethylcellulose cream and the cream alone was topically applied to the 1 cm×1 cm wound on the back of nude mice daily for 5 days, and wounds were analyzed every two days.
The pharmaceutical 100 μl of 10% carboxymethylcellulose cream (Sterile) is mixed in and the 1 cm×1 cm wound on the back of a nude mouse is topically covered. Following this treatment, the wound is covered with a few antibiotics and bandi and the bandi are fixed by rolling the mouse with coban. The F-3 compound mixture is then added every day for up to five days and the wound is analyzed every two days.
To prepare mice for topical treatment of F-3, 1.0-cm×1.0-cm full-thickness excision wounds were made by lifting the skin with forceps and removing full thickness skin with a pair of scissors on the mid-back of 8 to 10 week old mice. The wounds were topically covered by 100 μl 10% carboxymethylcellulose either without (as a control) or with 300 μg recombinant F-3 compound. The wound area was then covered with Band-Aid and Coban, a self-adherent wrap, to prevent desiccation. Only one dose of F-3 compounds was administered to the wound. To measure the wound area, standardized digital photographs were taken of the wounds at 4, 6, 8, 11, 13 and 15 days post-wounding and the open wound areas were determined with an image analyzer (AlphaEase FC version 4.1.0, Alpha Innotech Corporation). Percentage of wound area was defined by comparing areas of healing wounds to those of the original wounds. The Student T test was used for the statistical analysis. All animal studies were conducted using protocols approved by the University of Southern California Institutional Animal Use Committee.
A 1.0-cm^2 (lcm×lcm) square full-thickness excision wound was made on the mid-back of 8 to 10 week old athymic nude mice and the pharmaceutical composition of F-3 was applied topically daily for 5 days (n=10 mice per group). (A) Representative day 4, 6, 8, 11, 13 and 15 wounds are shown. […] (B) Mean±SD wound size measurements at day 4, 6, 8, 11, 13 and 15 post-wounding (n=10 mice for each group). […]

Substance | activity on cell migration (HKC migration) | closure of the wounds ([1]; 100 μg in 100 μl 10% carboxymethylcellulose cream, topical, daily for 5 days, day 4, 6, 8, 11, 13, 15, vs cream control, FIGS. 2A-2F) | wound sizes ([1]; F-3 vs 40 μg PDGF-BB (Regenerex) for 5 days, day 0, 5, 7, 10, 12, FIGS. 3A-3E) | wound sizes ([1]; athymic nude mice, topical daily for 5 days, day 4, 6, 8, 11, 13, 15, vs cream alone) | pro-motility activity (HKC migration; in comparison to the control medium)
F-3: fragment of hsp90α consisting of 115 amino acid units, from amino acid number 236 to 350 | ~100% | significantly accelerated closure of the wounds | significantly reduced | significantly reduced | 
WT hsp90α: the full-length (WT) hsp90α protein | 100% |  |  |  | remarkable pro-motility activity
EEKEDKEEEKEKEEKESEDKPEIEDVGSDEEEEKKDGDKKKKKKIKEKYIDQEE (listed as Homo sapiens) [F-5, hsp90α fragment having 54 amino acid units from amino acid number 236 to 289] | ~100% |  |  |  | 
